Test results taken from publication PMC11378298 (ACS Chemical Neuroscience, 2024).

Legend:
BV-2 cell line = assay: NO release in LPS-treated BV-2 cells (DAN fluorometric assay); format: cell-based, mouse; conditions: compound 10 μM; LPS 100 ng/mL
Protocol: Cell viability was determined by Presto Blue assay after 24 h. (B) Effect of compounds 11, 34, and 36 (0.1, 1, 10 μM) on NO-release (%) in LPS-treated (100 ng/mL) BV-2 cell line. NO-release was measured using a fluorometric assay with 2,3-diaminonaphthalene (DAN). (C, D) Effects of compounds 11 and 36 (0.1, 1, 10 μM) on IL-6 and TNF-α release in LPS-treated (100 ng/mL) BV-2 cell line. The IL-6 and TNF-α levels were measured using LANCE Ultra TR-FRET Detection Kit (PerkinElmer). Statistical analysis was performed using GraphPad Prism 9.0.0. All values are expressed as mean with SD. Differences among groups were evaluated by one-way ANOVA followed by posthoc analysis (Dunnett’s multiple comparison tests) vs. control group (LPS on BV-2 cells and okadaic acid on HT-22 cells) and were considered statistically significant if p < 0.05 (*p < 0.05, **p < 0.01, ***p < 0.001, and ****p < 0.0001).
An important role in the pathogenesis of AD has been attributed to neuroinflammation resulting from the activation of astrocytes and microglial cells.[55] These processes lead to increased production of proinflammatory cytokines such as TNF-α or IL-6 that activate processes, e.g., tau hyperphosphorylation, causing injury and cell death.[56] A standard model of neuroinflammation is based on lipopolysaccharide-stimulated BV-2 microglial cells. In this study, we used this model to evaluate the anti-inflammatory properties of compounds 11, 34, and 36.[57] Our evaluation focused on monitoring the levels of key inflammatory markers, including nitric oxide (NO, Figure 6B) and cytokines, TNF-α and IL-6 (Figure 6C,D).
The cells were pretreated with tested compounds for 1 h. […]
The NO level in the culture supernatants was measured using 2,3-diaminonaphthalene (DAN) reagent according to the method of Nussler et al.[88] After 15 min of incubation at room temperature, the fluorescence intensity (EX 360; EM 440 nm) was measured using a microplate reader POLARstar Omega, (BMG Labtech). The values of nitric oxide were calculated as a percentage of control (maximal response of LPS).

CDK1/cyclinB = target: T1, CDK1/cyclinB (Homo sapiens, UniProt P06493); assay: Kinase selectivity, radiometric [Km ATP] KinaseProfiler; format: biochemical
T1 construct: purchased Eurofins (KinaseProfiler service)
T1 sequence (P06493 whole entry): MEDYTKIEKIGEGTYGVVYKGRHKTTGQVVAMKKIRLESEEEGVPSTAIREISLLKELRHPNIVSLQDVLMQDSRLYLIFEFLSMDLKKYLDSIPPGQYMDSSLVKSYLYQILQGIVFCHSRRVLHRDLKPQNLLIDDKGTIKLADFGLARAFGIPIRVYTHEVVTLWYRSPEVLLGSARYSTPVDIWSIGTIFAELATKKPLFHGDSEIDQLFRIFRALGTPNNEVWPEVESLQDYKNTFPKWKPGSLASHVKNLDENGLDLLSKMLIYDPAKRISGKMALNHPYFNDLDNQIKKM
T1 sequence (P14635 whole entry partner): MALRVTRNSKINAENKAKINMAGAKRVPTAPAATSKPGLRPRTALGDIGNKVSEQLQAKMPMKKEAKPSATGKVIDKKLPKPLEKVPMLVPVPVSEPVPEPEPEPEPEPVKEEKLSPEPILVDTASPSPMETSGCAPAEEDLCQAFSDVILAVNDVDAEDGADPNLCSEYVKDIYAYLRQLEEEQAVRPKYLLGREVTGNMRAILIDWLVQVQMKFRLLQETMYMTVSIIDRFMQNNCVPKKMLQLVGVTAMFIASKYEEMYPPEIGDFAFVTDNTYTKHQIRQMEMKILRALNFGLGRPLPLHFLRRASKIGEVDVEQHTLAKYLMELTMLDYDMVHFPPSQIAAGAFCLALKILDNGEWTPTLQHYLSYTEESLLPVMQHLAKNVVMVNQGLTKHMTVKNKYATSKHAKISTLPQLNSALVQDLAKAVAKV
Protocol: (§1) We selected those kinases with the greatest potential for interaction based on structural homology, as indicated by the ChemPartner panel.
(§2) Figure 7 Kinase selectivity for compound 36. Data are presented as percent of kinases’ activity in the presence of 1 μM of compound 36. Kinases’ panel (CMGC group, human enzymes): CDK1/cyclinB, CDK2/cyclinA, CDK4/cyclinD3, CDK6/cyclinD3, CDK7/cyclinH/MAT1, CDK9/cyclinT1, DYRK1A, DYRK1B, GSK-3α, GSK-3β, JNK2α2, JNK3, MAPK1, MAPK2, SAPK2a(T106M), SAPK2b, SAPK3.
(§3) Selectivity studies were performed at Eurofins in Kinase Enzymatic Radiometric [Km ATP]
(§4) Kinase Profiler Lead Hunter Assay. The percentage of enzymatic activity was measured at the
(§5) concentration of 1 µM of compound 36 in duplicate for 17 selected kinases.
(§6) Table S12. Inhibitory activity of compound 36 against selected kinases.
(§7) *Where n = 2, the value reported here is actually range / √ 2.

CDK2/cyclinA = target: T2, CDK2/cyclinA (Homo sapiens, UniProt P24941); assay: as above; format: biochemical
T2 construct: purchased Eurofins (KinaseProfiler service)
Protocol: as §1, §2, §3, §4, §5, §6, §7

CDK4/cyclinD3 = target: T3, CDK4/cyclinD3 (Homo sapiens, UniProt P11802); assay: as above; format: biochemical
T3 construct: purchased Eurofins (KinaseProfiler service)
Protocol: as §1, §2, §3, §4, §5, §6, §7

CDK6/cyclinD3 = target: T4, CDK6/cyclinD3 (Homo sapiens, UniProt Q00534); assay: as above; format: biochemical
T4 construct: purchased Eurofins (KinaseProfiler service)
T4 sequence (Q00534 whole entry): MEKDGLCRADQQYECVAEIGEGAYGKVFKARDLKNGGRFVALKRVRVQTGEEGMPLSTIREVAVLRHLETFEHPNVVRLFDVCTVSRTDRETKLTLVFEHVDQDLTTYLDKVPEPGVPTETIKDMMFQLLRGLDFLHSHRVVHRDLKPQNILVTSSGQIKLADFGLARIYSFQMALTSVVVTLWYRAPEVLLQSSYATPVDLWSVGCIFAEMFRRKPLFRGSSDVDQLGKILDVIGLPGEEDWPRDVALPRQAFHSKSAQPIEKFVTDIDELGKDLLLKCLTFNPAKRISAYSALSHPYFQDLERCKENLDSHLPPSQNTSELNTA
T4 sequence (P30281 whole entry partner): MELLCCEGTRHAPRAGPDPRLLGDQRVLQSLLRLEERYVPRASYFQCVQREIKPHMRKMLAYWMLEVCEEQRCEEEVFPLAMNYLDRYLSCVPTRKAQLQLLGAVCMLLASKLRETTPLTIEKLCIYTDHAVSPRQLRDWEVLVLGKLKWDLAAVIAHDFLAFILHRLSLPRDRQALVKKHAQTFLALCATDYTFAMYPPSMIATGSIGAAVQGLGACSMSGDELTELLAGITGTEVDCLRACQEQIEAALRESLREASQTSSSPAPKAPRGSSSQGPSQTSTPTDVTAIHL
Protocol: as §1, §2, §3, §4, §5, §6, §7

CDK7/cyclinH/MAT1 = target: T5, CDK7/cyclinH/MAT1 (Homo sapiens, UniProt P50613); assay: as above; format: biochemical
T5 construct: purchased Eurofins (KinaseProfiler service)
T5 sequence (P50613 whole entry): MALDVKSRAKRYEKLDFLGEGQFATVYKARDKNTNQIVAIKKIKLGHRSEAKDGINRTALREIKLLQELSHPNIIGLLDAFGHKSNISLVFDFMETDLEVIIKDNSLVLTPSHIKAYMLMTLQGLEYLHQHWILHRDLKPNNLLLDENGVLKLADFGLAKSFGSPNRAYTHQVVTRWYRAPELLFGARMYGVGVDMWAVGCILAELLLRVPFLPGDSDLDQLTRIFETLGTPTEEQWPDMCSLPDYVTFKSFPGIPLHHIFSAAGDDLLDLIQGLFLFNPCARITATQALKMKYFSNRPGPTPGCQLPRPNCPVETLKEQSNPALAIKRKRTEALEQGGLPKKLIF
T5 sequence (P51946 whole entry partner): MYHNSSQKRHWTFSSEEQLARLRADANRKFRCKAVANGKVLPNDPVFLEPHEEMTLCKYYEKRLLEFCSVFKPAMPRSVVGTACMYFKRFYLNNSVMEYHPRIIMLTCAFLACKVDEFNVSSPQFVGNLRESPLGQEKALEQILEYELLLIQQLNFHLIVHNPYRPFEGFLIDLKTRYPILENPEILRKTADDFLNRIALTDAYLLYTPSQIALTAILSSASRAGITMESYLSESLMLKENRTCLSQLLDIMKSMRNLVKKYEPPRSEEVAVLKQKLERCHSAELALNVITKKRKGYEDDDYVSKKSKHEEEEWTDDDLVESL
T5 sequence (P51948 whole entry partner): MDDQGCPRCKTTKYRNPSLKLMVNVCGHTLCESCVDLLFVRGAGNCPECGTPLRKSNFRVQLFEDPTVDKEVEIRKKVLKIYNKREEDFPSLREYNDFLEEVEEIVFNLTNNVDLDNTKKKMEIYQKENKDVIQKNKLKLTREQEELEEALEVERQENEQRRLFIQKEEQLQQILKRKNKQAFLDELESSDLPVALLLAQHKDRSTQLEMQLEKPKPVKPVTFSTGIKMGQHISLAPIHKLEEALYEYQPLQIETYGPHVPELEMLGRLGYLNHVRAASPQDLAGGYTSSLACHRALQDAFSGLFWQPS
Protocol: as §1, §2, §3, §4, §5, §6, §7

CDK9/cyclin T1 = target: T6, CDK9/cyclin T1 (Homo sapiens, UniProt P50750); assay: as above; format: biochemical
T6 construct: purchased Eurofins (KinaseProfiler service)
Protocol: as §1, §2, §3, §4, §5, §6, §7

DYRK1A = target: T7, DYRK1A (Homo sapiens, UniProt Q13627); assay: as above; format: biochemical; conditions: duplicate
T7 construct: purchased Eurofins (KinaseProfiler service)
Protocol: as §1, §2, §3, §4, §5, §6, §7

DYRK1B = target: T8, DYRK1B (Homo sapiens, UniProt Q9Y463); assay: as above; format: biochemical; conditions: duplicate
T8 construct: purchased Eurofins (KinaseProfiler service)
Protocol: as §1, §2, §3, §4, §5, §6, §7

GSK-3α = target: T9, GSK-3α (Homo sapiens, UniProt P49840); assay: as above; format: biochemical; conditions: duplicate
T9 construct: purchased Eurofins (KinaseProfiler service)
Protocol: as §1, §2, §3, §4, §5, §6, §7

JNK2α2 = target: T10, JNK2α2 (Homo sapiens, UniProt P45984); assay: as above; format: biochemical
T10 construct: purchased Eurofins (KinaseProfiler service)
Protocol: as §1, §2, §3, §4, §5, §6, §7

JNK3 = target: T11, JNK3 (Homo sapiens, UniProt P53779); assay: as above; format: biochemical
T11 construct: purchased Eurofins (KinaseProfiler service)
T11 sequence (P53779 whole entry): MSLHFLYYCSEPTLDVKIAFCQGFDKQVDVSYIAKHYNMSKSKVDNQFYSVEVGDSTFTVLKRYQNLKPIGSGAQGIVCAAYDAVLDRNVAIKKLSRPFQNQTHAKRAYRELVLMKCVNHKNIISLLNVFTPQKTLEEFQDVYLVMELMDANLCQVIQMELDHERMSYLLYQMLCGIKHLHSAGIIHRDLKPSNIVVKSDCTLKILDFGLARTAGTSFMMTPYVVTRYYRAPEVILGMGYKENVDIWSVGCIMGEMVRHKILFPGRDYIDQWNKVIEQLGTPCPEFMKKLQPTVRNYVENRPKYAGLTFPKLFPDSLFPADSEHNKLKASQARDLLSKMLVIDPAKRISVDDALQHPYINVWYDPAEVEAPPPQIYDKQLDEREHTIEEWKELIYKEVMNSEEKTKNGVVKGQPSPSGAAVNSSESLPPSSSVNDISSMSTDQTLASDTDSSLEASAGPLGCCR
Protocol: as §1, §2, §3, §4, §5, §6, §7

MAPK1 = target: T12, MAPK1 (Homo sapiens, UniProt P27361); assay: as above; format: biochemical
T12 construct: purchased Eurofins (KinaseProfiler service)
Protocol: as §1, §2, §3, §4, §5, §6, §7

MAPK2 = target: T13, MAPK2 (Homo sapiens, UniProt P28482); assay: as above; format: biochemical
T13 construct: purchased Eurofins (KinaseProfiler service)
T13 sequence (P28482 whole entry): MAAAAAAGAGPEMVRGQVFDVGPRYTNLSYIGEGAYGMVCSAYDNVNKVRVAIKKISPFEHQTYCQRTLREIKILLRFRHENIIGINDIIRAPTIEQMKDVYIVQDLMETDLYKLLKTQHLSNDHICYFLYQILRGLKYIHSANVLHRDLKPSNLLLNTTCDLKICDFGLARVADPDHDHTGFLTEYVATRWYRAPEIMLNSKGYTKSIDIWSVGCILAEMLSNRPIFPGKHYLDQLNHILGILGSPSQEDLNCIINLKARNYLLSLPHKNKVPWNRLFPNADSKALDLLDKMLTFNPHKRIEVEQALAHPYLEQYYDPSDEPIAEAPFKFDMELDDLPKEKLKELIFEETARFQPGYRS
Protocol: as §1, §2, §3, §4, §5, §6, §7

SAPK2a(T106M) = target: T14, SAPK2a(T106M) (Homo sapiens, UniProt Q16539, T106M); assay: as above; format: biochemical
T14 construct: purchased Eurofins (KinaseProfiler service)
T14 sequence (Q16539 whole entry T106M): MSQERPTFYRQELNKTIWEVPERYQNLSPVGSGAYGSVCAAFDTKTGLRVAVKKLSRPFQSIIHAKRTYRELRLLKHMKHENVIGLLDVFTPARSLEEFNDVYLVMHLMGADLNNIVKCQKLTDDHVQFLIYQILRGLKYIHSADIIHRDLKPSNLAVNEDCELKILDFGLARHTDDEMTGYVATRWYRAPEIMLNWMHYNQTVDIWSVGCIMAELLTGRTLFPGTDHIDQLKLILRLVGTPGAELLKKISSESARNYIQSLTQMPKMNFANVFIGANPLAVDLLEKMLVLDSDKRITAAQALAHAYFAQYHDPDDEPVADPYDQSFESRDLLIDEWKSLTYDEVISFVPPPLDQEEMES
Protocol: as §1, §2, §3, §4, §5, §6, §7

SAPK2b = target: T15, SAPK2b (Homo sapiens, UniProt Q15759); assay: as above; format: biochemical
T15 construct: purchased Eurofins (KinaseProfiler service)
T15 sequence (Q15759 whole entry): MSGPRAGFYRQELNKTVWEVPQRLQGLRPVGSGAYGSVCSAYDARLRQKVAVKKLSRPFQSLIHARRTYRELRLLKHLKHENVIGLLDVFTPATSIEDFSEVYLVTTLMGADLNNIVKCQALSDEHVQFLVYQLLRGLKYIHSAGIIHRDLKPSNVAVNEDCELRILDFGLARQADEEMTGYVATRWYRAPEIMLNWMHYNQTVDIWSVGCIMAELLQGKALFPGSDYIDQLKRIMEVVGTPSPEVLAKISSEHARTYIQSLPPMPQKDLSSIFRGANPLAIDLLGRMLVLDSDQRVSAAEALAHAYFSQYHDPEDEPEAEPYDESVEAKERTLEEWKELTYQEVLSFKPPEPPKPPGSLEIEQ
Protocol: as §1, §2, §3, §4, §5, §6, §7

SAPK3 = target: T16, SAPK3 (Homo sapiens, UniProt P53778); assay: as above; format: biochemical
T16 construct: purchased Eurofins (KinaseProfiler service)
T16 sequence (P53778 whole entry): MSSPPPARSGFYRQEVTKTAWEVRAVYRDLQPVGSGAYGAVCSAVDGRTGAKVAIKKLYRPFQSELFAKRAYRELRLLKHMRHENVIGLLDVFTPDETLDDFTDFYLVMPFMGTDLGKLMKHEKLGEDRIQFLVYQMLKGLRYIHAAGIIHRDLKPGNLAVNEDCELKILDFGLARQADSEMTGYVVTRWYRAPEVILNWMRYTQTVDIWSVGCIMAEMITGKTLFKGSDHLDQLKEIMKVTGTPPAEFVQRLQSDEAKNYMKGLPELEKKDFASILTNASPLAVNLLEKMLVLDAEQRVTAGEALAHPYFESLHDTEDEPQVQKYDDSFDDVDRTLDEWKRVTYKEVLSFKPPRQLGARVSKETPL
Protocol: as §1, §2, §3, §4, §5, §6, §7

GSK-3β [1] = target: T17, GSK-3β (Homo sapiens, UniProt P49841); assay: biochemical
T17 sequence (P49841 whole entry): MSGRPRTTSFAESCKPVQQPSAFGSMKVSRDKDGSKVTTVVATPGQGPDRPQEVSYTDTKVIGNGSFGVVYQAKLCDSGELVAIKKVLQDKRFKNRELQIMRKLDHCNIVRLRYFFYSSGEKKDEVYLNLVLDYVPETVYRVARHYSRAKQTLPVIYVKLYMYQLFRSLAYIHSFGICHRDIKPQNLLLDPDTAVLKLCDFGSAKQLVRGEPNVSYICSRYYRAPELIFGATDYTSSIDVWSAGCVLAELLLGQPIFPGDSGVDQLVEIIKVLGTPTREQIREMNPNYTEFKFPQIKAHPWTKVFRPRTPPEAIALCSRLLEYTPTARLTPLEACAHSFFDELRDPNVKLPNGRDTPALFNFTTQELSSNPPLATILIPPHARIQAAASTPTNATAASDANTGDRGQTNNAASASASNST
Protocol: as §1, §2, §3, §4, §5, §6, §7

GSK-3β [2] = target: T17, GSK-3β; assay: Kinetics of GSK-3β inhibition (ADP-Glo, varied ATP); format: biochemical; design: purchased Promega
From the text: Each data point was collected in triplicate.
Kinetics of GSK-3β inhibition by compound 36
diverse ATP concentrations to determine the mechanism of enzyme - inhibitor interaction. The
(1 picture or pasted object on this page, not shown here) […]

NC(=O)N1CC=C(c2ccnc(NC(=O)C3CC3)c2)C1 [Compound 11, 3-(2-(Cyclopropanecarboxamido)pyridin-4-yl)-2,5-dihydro-1H-pyrrole-1-carboxamide]
NO release (BV-2 cell line): significantly reducing the release

O=C(Nc1cc(-c2ccc(-c3ncon3)s2)ccn1)C1CC1 [Compound 36, N-(4-(5-(1,2,4-Oxadiazol-3-yl)thiophen-2-yl)pyridin-2-yl)cyclopropanecarboxamide]
NO release (BV-2 cell line): significantly reducing the release
inhibition at 1 µM (CDK1/cyclinB): 58%
% of enzyme activity at 1μM of 36 ±SD, CDK1/cyclinB (CDK1/cyclinB; duplicate): 42±4%
inhibition at 1 µM (CDK2/cyclinA): 63%
% of enzyme activity at 1μM of 36 ±SD, CDK2/cyclinA (CDK2/cyclinA; duplicate): 37±1%
inhibition at 1 µM (CDK4/cyclinD3): < 50%
% of enzyme activity at 1μM of 36 ±SD, CDK4/cyclinD3 (CDK4/cyclinD3; duplicate): 97±9%
inhibition at 1 µM (CDK6/cyclinD3): < 50%
% of enzyme activity at 1μM of 36 ±SD, CDK6/cyclinD3 (CDK6/cyclinD3; duplicate): 90±1%
inhibition at 1 µM (CDK7/cyclinH/MAT1): < 50%
% of enzyme activity at 1μM of 36 ±SD, CDK7/cyclinH/ MAT1 (CDK7/cyclinH/MAT1; duplicate): 93±7%
inhibition at 1 µM (CDK9/cyclin T1): 84%
% of enzyme activity at 1μM of 36 ±SD, CDK9/cyclin T1 (CDK9/cyclin T1; duplicate): 16±2%
% of enzyme activity at 1μM of 36 ±SD, DYRK1A (DYRK1A): 11±1%
% of enzyme activity at 1μM of 36 ±SD, DYRK1B (DYRK1B): 26±6%
% of enzyme activity at 1μM of 36 ±SD, GSK-3α (GSK-3α): 2±1%
inhibition at 1 µM (JNK2α2): < 50%
% of enzyme activity at 1μM of 36 ±SD, JNK2α2 (JNK2α2; duplicate): 100±7%
inhibition at 1 µM (JNK3): < 50%
% of enzyme activity at 1μM of 36 ±SD, JNK3 (JNK3; duplicate): 73±6%
inhibition at 1 µM (MAPK1): < 50%
% of enzyme activity at 1μM of 36 ±SD, MAPK1 (MAPK1; duplicate): 100±1%
inhibition at 1 µM (MAPK2): < 50%
% of enzyme activity at 1μM of 36 ±SD, MAPK2 (MAPK2; duplicate): 98±6%
inhibition at 1 µM (SAPK2a(T106M)): < 50%
% of enzyme activity at 1μM of 36 ±SD, SAPK2a(T106M) (SAPK2a(T106M); duplicate): 95±7%
inhibition at 1 µM (SAPK2b): < 50%
% of enzyme activity at 1μM of 36 ±SD, SAPK2b (SAPK2b; duplicate): 100±2%
% of enzyme activity at 1μM of 36 ±SD, SAPK3 (SAPK3; 1 μM, duplicate): 50±3%
inhibition at 1 µM (SAPK3; read-out: inhibition of SAPK3): < 50%
% of enzyme activity at 1μM of 36 ±SD, GSK-3β (GSK-3β [1]; 1 μM, duplicate): 5±1%
inhibition at 1 µM (GSK-3β [1]; read-out: inhibition of GSK-3β): 92%
Ki (GSK-3β [2]): 60.3 nM
type of inhibition (GSK-3β [2]; Lineweaver–Burk and Cornish–Bowden plots, varied ATP): ATP-competitive
